# Assay results from patent US20240166664A1, “TRIHETEROCYCLIC COMPOUND, PREPARATION METHOD THEREFOR, AND APPLICATION THEREOF” (SHANGHAI APEIRON THERAPEUTICS COMPANY LIMITED, priority 2021, published 2024).
# Like-named read-outs stand apart in the source and are kept apart here.
# Tests used:
# PARP7 = target: T1, PARP7 (Homo sapiens, UniProt Q7Z3E1); test: Test of inhibitory activity against PARP7 enzyme (PARP7 FLAG-tag, Probe A, time-resolved fluorescence); type: biochemical; settings: PARP7 12 nM, Probe A 2 nM, 1 hr room temperature
# T1 construct: purchased BPS 80527
# T1 sequence (Q7Z3E1 1-657): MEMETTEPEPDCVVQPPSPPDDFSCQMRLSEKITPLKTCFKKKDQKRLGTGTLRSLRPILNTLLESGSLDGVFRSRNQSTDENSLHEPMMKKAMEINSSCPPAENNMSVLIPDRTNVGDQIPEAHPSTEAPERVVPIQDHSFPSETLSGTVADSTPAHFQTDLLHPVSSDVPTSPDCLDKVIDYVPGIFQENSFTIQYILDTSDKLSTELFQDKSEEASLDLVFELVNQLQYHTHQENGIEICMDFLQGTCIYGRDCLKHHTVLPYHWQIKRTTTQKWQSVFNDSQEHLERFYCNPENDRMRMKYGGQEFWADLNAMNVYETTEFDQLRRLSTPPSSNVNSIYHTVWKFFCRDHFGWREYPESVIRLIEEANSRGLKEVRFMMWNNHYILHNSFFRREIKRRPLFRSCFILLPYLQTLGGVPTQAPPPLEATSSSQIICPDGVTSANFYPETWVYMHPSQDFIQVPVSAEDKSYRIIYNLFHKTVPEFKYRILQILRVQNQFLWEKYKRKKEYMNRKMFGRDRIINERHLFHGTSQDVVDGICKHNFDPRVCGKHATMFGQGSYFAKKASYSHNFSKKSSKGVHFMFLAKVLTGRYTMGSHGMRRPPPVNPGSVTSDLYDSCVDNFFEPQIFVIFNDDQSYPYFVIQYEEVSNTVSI
# NCI-H1373 cells = test: Cell proliferation inhibition assay (CTG method); type: cell-based, human; settings: read-out: IC50 (nM) for NCI-H1373 cell viability
# [1] = Homo sapiens, NCI-H1373, 144 h, NCI-H1373 cells, 6 days incubation, CTG method
IC50 (PARP7) [µM],IC50 (NCI-H1373 cells; [1]) [nM],"IC50 (NCI-H1373 cells; NCI-H1373 cells, 6 days incubation, CTG method) [nM]","IC50 (NCI-H1373 cells; Homo sapiens, NCI-H1373, 144 h) [nM]",SMILES
< 0.01,< 100,–,–,"C[C@@H](COCCC(=O)N1CCN2c3ncc(C(F)(F)F)nc3N(C)C(=O)[C@H]2C1)Nc1cn[nH]c(=O)c1C(F)(F)F [Compound 48, (R)-5-methyl-8-(3-((S)-2-((6-oxo-5-(trifluoromethyl)-1,6-dihydropyridazin-4-yl)amino)propoxy)propionyl)-3-(trifluoromethyl)-7,8,9, 10-tetrahydro-5H-bipyrazino[1,2-a:2′, 3′-e]pyrazin-6(6aH)-one]"
< 0.01,–,< 100,–,C[C@@H](COCCC(=O)N1CCN2c3ncc(C(F)(F)F)cc3C=C[C@H]2C1)Nc1cn[nH]c(=O)c1C(F)(F)F [Compound 60]
< 0.01,< 100,–,–,"C[C@@H](COCCC(=O)N1CCN2c3ncc(C(F)(F)F)nc3OCC[C@H]2C1)Nc1cn[nH]c(=O)c1C(F)(F)F [Compound 47, 5-(((S)-1-(3-oxo-3-((S)-3-(trifluoromethyl)-6,7,7a, 8, 10, 11-hexahydro-9H-bipyrazino[2,3-b:1′, 2′-d][1, 4]oxazepane-9-yl)propoxy)prop-2-yl)amino)-4-(trifluoromethyl)pyridazin-3(2H)-one]"
< 0.01,500 to 5000,–,–,"C[C@@H](COCCC(=O)N1CCN2c3ncc(C(F)(F)F)cc3C(=O)N(C)C[C@H]2C1)Nc1cn[nH]c(=O)c1C(F)(F)F [Compound 42, (S)-6-methyl-9-(3-((S)-2-((6-oxo-5-(trifluoromethyl)-1,6-dihydropyridazin-4-yl)amino)propoxy)propionyl)-3-(trifluoromethyl)-7,7a, 8,9,10,11-hexahydropyrazino[1,2-a]pyrido[3,2-f][1,4]diazepan-5(6H)-one]"
< 0.01,< 100,–,–,C[C@@H](COC[C@@H](F)C(=O)N1CCN2c3ncc(C(F)(F)F)cc3C=C[C@@H]2C1)Nc1cn[nH]c(=O)c1C(F)(F)F [Compound 73]
< 0.01,< 100,–,–,"C[C@@H](COCCC(=O)N1CCN2c3ncc(C(F)(F)F)cc3CC[C@H]2C1)Nc1cn[nH]c(=O)c1C(F)(F)F (single isomer, unassigned) [Compound 45]"
< 0.01,> 5000,–,–,"C[C@@H](COCCC(=O)N1CCN2c3ncc(C(F)(F)F)cc3C(=O)OC[C@H]2C1)Nc1cn[nH]c(=O)c1C(F)(F)F [Compound 3, (R)-9-(3-((S)-2-((6-oxo-5-(trifluoromethyl)-1,6-dihydropyridazin-4-yl)amino)propoxy)propionyl)-3-(trifluoromethyl)-7,7a, 8,9,10,11-hexahydro-5H-pyrazino[2,1-c]pyrido[2,3-e][1,4]oxazin-5-one]"
< 0.01,100 to 500,–,–,C[C@@H](COCCC(=O)N1CCN2c3ncc(C#N)cc3N(C)C(=O)[C@@H]2C1)Nc1cn[nH]c(=O)c1C(F)(F)F [Compound 53]
< 0.01,> 5000,–,–,"C[C@@H](COCCC(=O)N1CCN2c3nc(N)c(C(F)(F)F)cc3COC[C@H]2C1)Nc1cn[nH]c(=O)c1C(F)(F)F [Compound 77, 5-(((S)-1-(3-((R)-2-amino-3-(trifluoromethyl)-7a, 8, 10, 11-tetrahydro-5H-pyrazino[2,1-c]pyrido[2,3-e][1, 4]oxazepane-9(7H)-yl)-3-oxypropoxy)prop-2-yl)amino)-4-(trifluoromethyl)pyridazin-3(2H)-one]"
< 0.01,500 to 5000,–,–,"C[C@@H](COCCC(=O)N1CCN2c3ncc(C(F)(F)F)cc3C[S+]([O-])C[C@H]2C1)Nc1cn[nH]c(=O)c1C(F)(F)F (stereo partly drawn) [Compound 15, 5-(((2S)-1-(3-((7aR)-6-oxo-3-(trifluoromethyl)-7a, 8,10,11-tetrahydro-5H-pyrazino[2,1-c]pyrido[2,3-e][1,4]thiazin-9(7H)-yl)-3-oxopropoxy)prop-2-yl)amino)-4-(trifluoromethyl)pyridazin-3(2H)-one]"
< 0.01,100 to 500,–,–,"C[C@@H](COCCC(=O)N1CCN2c3ncc(C(F)(F)F)c(C#N)c3OC[C@H]2C1)Nc1cn[nH]c(=O)c1C(F)(F)F [Compound 51, (R)-8-(3-((S)-2-((6-oxo-5-(trifluoromethyl)-1,6-dihydropyridazin-4-yl)amino)propoxy)propionyl)-3-(trifluoromethyl)-6,6a, 7,8,9, 10-hexahydropyrazino[1,2-d]pyrido[3,2-b][1, 4]oxazinane-4-carbonitrile]"
< 0.01,< 100,–,–,"C[C@@H](COCCC(=O)N1CCN2c3ncc(C(F)(F)F)cc3NCC[C@H]2C1)Nc1cn[nH]c(=O)c1C(F)(F)F [Compound 35, 5-(((S)-1-(3-oxo-3-((S)-3-(trifluoromethyl)-6,7,7a, 8,10,11-hexahydropyrazino[1,2-d]pyrido[3,2-b][1,4]diazepine-9(5H)-yl)propoxy)prop-2-yl)amino)-4-(trifluoromethyl)pyridazin-3(2H)-one]"
< 0.01,100 to 500,–,–,C[C@@H](COCCC(=O)N1CCN2c3ncc(C(F)(F)F)cc3CNC[C@H]2C1)Nc1cn[nH]c(=O)c1C(F)(F)F [Compound 10]
< 0.01,< 100,–,–,"C[C@@H](COCCC(=O)N1CCN2c3ncc(C(F)(F)F)cc3CSC[C@H]2C1)Nc1cn[nH]c(=O)c1C(F)(F)F [Compound 12, 5-(((S)-1-(3-oxo-3-((R)-3-(trifluoromethyl)-7a, 8,10,11-tetrahydro-5H-pyrazino[2,1-c]pyrido[2,3-e][1,4]thiazin-9(7H)-yl)propoxy)prop-2-yl)amino)-4-(trifluoromethyl)pyridazin-3(2H)-one]"
< 0.01,< 100,–,–,"C[C@@H](COCCC(=O)N1CCN2c3ncc(C(F)(F)F)cc3OCC[C@H]2C1)Nc1cn[nH]c(=O)c1C(F)(F)F [Compound 29, 5-(((S)-1-(3-oxo-3-((S)-3-(trifluoromethyl)-6,7,7a, 8,10,11-hexahydro-9H-pyrazino[1,2-d]pyrido[3,2-b][1,4]oxazepan-9-yl)propoxy)prop-2-yl)amino)-4-(trifluoromethyl)pyridazin-3(2H)-one]"
< 0.01,< 100,–,–,"CC(COCC(O)C(=O)N1CCN2c3ncc(C(F)(F)F)cc3COCC2C1)Nc1cn[nH]c(=O)c1C(F)(F)F (single isomer, unassigned) [Compound 55]"
< 0.01,< 100,–,–,C[C@@H](COC[C@@H](O)C(=O)N1CCN2c3ncc(C(F)(F)F)cc3C=C[C@@H]2C1)Nc1cn[nH]c(=O)c1C(F)(F)F [Compound 72]
< 0.01,500 to 5000,–,–,"C[C@@H](COCCC(=O)N1CCN2c3ncc(C(F)(F)F)cc3N(CCO)C(=O)[C@@H]2C1)Nc1cn[nH]c(=O)c1C(F)(F)F [Compound 41, (S)-5-(2-hydroxyethyl)-8-(3-((S)-2-((6-oxo-5-(trifluoromethyl)-1,6-dihydropyridazin-4-yl)amino)propoxy)propionyl)-3-(trifluoromethyl)-7,8,9,10-tetrahydro-5H-pyrazino[1,2-a]pyrido[3,2-e]pyrazino-6(6aH)-one]"
< 0.01,100 to 500,–,–,"C[C@@H](COCCC(=O)N1CCN2c3ncc(C(F)(F)F)cc3N(C3CC3)C(=O)[C@@H]2C1)Nc1cn[nH]c(=O)c1C(F)(F)F [Compound 30, (s)-5-cyclopropyl-8-(3-((S)-2-((6-oxo-5-(trifluoromethyl)-1,6-dihydropyridazin-4-yl)amino)propoxy)propionyl)-3-(trifluoromethyl)-7,8,9,10-tetrahydro-5H-pyrazino[1,2-a]pyrido[3,2-e]pyrazin-6(6aH)-one]"
< 0.01,500 to 5000,–,–,Cc1nc2c(cc1C(F)(F)F)COC[C@H]1CN(C(=O)CCOC[C@H](C)Nc3cn[nH]c(=O)c3C(F)(F)F)CCN21 [Compound 31]
< 0.01,500 to 5000,–,–,C[C@@H](COCCC(=O)N1CCN2c3ncc(C(F)(F)F)cc3CN(C#N)C[C@H]2C1)Nc1cn[nH]c(=O)c1C(F)(F)F [Compound 11]
< 0.01,500 to 5000,–,–,"C[C@@H](COCCC(=O)N1CCN2c3ncc(C(F)(F)F)cc3C(F)(F)C[C@@H]2C1)Nc1cn[nH]c(=O)c1C(F)(F)F (single isomer, unassigned) [Compound 64]"
< 0.01,–,–,< 100,"CCN1C(=O)[C@@H]2CN(C(=O)CCOC[C@H](C)Nc3cn[nH]c(=O)c3C(F)(F)F)CCN2c2ncc(C(F)(F)F)cc21 [Compound 40, (S)-5-ethyl-8-(3-((S)-2-((6-oxo-5-(trifluoromethyl)-1,6-dihydropyridazin-4-yl)amino)propoxy)propionyl)-3-(trifluoromethyl)-7,8,9,10-tetrahydro-5H-pyrazino[1,2-a]pyrido[3,2-e]pyrazin-6(6aH)-one]"
< 0.01,< 100,–,–,"C[C@@H](COC[C@@H](F)C(=O)N1CCN2c3ncc(C(F)(F)F)cc3N(C)C(=O)[C@@H]2C1)Nc1cn[nH]c(=O)c1C(F)(F)F [Compound 65, (S)-8-((R)-2-fluoro-3-((S)-2-((6-oxo-5-(trifluoromethyl)-1,6-dihydropyridazin-4-yl)amino)propoxy)propionyl)-5-methyl-3-(trifluoromethyl)-7,8,9, 10-tetrahydro-5H-pyrazino[1,2-a]pyrido[3,2-e]pyrazin-6(6aH)-one]"
